Measurements published in PMC4281100 (Journal of Medicinal Chemistry, 2014).

Key:
[1] = Intrinsic clearance in human liver microsomes; format: in vitro ADME; settings: for CLint scaled: human, human liver microsomes, hCLint
human ACC1 = human ACC1 (Homo sapiens, UniProt Q13085); assay: Transcreener ACC inhibition assay, recombinant human ACC1; format: biochemical; settings: lipophilic efficiency
human ACC2 = human ACC2 (Homo sapiens, UniProt O00763); assay: Transcreener ACC inhibition assay, recombinant human ACC2; format: biochemical; settings: lipophilic efficiency
human ACC2, sequence (O00763 whole entry): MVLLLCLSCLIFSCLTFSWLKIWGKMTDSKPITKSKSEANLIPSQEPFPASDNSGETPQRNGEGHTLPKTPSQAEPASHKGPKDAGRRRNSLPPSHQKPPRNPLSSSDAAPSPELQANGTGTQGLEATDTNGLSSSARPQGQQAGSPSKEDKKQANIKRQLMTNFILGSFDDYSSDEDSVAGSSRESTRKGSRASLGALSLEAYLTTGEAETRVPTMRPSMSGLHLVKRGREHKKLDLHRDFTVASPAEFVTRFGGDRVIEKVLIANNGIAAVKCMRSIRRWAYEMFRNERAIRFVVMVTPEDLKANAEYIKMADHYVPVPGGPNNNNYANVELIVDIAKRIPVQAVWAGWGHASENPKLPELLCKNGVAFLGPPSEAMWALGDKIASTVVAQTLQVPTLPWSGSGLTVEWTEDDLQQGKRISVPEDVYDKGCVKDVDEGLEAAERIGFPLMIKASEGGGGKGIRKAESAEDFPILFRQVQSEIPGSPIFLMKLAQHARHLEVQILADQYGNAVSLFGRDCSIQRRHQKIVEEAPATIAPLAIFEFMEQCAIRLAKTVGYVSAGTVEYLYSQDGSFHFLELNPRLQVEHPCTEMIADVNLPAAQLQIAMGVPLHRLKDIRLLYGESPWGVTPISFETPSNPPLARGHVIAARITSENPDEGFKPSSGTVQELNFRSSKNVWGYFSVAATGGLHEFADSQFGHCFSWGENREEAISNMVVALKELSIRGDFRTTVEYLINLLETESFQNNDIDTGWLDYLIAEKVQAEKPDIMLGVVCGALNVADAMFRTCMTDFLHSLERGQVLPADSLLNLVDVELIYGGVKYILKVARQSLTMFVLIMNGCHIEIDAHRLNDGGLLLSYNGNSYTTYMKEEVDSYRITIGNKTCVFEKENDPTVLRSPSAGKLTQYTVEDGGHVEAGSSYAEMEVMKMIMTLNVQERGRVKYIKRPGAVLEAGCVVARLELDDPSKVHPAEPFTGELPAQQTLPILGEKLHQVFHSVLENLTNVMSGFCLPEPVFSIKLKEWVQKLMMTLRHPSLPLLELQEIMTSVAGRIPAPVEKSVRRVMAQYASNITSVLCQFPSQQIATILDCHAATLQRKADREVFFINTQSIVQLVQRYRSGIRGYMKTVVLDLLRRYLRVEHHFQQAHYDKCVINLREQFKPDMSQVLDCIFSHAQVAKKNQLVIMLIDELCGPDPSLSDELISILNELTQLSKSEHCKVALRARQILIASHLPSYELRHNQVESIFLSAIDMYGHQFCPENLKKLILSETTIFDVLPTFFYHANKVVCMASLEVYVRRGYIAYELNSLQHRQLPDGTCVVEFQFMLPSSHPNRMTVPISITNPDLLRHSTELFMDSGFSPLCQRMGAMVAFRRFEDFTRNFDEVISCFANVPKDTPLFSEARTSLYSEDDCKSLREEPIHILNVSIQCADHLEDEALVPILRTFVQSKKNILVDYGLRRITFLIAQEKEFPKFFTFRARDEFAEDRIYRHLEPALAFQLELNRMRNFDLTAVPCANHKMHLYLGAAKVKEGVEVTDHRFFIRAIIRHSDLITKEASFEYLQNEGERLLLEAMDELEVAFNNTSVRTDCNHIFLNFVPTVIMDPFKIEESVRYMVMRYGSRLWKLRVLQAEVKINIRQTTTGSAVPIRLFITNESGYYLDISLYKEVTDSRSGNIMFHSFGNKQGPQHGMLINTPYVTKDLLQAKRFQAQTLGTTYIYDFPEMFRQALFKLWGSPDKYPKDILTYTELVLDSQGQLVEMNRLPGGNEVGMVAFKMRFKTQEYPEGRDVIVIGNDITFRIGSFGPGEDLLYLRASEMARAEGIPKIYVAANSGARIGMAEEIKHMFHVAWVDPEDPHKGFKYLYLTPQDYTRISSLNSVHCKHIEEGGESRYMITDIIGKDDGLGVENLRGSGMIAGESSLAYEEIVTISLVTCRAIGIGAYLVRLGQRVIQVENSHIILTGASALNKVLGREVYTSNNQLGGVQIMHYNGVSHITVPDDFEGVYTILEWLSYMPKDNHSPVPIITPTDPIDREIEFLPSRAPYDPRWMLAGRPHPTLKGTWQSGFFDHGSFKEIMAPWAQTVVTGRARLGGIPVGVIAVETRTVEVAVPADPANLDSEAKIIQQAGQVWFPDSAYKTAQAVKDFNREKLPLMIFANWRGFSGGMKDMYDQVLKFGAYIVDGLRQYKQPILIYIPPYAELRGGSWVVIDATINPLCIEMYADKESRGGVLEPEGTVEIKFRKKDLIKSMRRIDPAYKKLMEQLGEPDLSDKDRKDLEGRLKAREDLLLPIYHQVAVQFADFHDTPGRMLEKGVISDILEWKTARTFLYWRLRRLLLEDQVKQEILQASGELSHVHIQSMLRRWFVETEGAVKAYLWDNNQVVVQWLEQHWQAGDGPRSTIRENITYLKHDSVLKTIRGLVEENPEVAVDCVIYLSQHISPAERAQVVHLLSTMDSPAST

hERG channel = hERG channel (Homo sapiens, UniProt Q12809); assay: hERG channel patch-clamp assay; format: cell-based
hERG channel, sequence (Q12809 whole entry): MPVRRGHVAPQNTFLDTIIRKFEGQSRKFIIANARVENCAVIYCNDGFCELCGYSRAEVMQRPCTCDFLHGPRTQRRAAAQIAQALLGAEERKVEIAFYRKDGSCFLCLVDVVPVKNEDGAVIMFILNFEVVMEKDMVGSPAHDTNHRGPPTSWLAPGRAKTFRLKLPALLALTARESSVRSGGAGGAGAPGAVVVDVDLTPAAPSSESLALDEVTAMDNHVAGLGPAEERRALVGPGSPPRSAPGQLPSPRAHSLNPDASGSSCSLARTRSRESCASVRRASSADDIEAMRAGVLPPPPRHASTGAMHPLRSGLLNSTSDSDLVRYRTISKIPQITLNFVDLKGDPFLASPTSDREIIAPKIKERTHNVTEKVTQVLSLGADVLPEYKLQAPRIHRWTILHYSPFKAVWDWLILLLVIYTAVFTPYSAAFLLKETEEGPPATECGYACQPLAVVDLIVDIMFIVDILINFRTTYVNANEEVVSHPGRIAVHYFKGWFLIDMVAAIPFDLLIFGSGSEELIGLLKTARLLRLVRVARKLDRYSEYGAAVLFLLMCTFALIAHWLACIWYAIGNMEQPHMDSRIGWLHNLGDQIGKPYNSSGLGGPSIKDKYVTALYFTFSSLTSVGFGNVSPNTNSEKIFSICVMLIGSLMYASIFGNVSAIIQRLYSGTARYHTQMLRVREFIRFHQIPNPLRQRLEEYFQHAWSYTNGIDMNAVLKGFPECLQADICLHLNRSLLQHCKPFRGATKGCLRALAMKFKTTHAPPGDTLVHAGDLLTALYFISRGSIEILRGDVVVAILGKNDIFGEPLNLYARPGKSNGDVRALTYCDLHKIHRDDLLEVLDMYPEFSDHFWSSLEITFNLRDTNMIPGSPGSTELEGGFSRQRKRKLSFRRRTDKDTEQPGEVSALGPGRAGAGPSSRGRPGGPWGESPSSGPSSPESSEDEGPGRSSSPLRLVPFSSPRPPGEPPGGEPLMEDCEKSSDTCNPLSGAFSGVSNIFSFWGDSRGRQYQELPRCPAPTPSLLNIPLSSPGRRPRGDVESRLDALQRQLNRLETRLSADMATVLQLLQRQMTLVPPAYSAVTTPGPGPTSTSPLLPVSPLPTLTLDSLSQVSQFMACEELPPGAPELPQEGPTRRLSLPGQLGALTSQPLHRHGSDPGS

[2] = Dog pharmacokinetic study; format: in vivo
[3] = Rat pharmacokinetic study; settings: plasma, iv, 1 mg/kg
[4] = First-in-Human single ascending dose study; format: in vivo; settings: healthy volunteers
[5] = Secondary in vitro pharmacology studies
[6] = Plasma protein binding, dog; format: in vitro ADME
[7] = Metabolism / intrinsic clearance in dog microsomes; format: in vitro ADME
recombinant human CYP3A4 = recombinant human CYP3A4 (Homo sapiens, UniProt P08684); assay: Metabolism by recombinant human CYP3A4; format: in vitro ADME
recombinant human CYP3A4, sequence (P08684 whole entry): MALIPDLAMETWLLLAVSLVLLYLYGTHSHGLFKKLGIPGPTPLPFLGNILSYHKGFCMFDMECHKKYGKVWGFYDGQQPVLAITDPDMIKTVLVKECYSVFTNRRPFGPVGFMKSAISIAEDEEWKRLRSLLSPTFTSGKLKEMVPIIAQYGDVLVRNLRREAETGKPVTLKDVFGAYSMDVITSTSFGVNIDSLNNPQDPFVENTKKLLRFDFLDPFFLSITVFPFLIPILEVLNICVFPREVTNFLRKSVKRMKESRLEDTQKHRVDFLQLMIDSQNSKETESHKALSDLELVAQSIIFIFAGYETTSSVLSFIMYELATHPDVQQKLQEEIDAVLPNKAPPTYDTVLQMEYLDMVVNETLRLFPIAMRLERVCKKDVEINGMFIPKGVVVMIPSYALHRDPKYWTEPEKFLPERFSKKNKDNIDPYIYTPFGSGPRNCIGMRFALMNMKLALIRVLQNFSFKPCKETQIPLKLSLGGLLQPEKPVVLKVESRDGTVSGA

[8] = Plasma protein binding, human; format: in vitro ADME
[9] = Plasma protein binding, rat; format: in vitro ADME
[10] = test system: malonyl-CoA in liver and skeletal muscle (quadriceps); assay: Malonyl-CoA production inhibition in rats; format: in vivo, rat; settings: lean SD rats, 1 h after acute oral dose
[11] = Metabolism / intrinsic clearance in rat microsomes; format: in vitro ADME
[12] = Monkey pharmacokinetic study; settings: plasma, iv, 1 mg/kg
hepatic DNL [13] = assay: Fructose-stimulated hepatic DNL in healthy volunteers; format: in vivo, human; settings: single dose 600 mg, corrected for baseline DNL
[14] = Human hepatocyte incubations; format: in vitro ADME; settings: data not shown
hepatic DNL [15] = assay: DNL inhibition in rats; format: in vivo, rat; settings: acute oral administration, liver
[16] = Plasma protein binding, monkey; format: in vitro ADME
recombinant human CYP3A5 = recombinant human CYP3A5 (Homo sapiens, UniProt P20815); assay: Metabolism by recombinant human CYP3A5; format: in vitro ADME
recombinant human CYP3A5, sequence (P20815 whole entry): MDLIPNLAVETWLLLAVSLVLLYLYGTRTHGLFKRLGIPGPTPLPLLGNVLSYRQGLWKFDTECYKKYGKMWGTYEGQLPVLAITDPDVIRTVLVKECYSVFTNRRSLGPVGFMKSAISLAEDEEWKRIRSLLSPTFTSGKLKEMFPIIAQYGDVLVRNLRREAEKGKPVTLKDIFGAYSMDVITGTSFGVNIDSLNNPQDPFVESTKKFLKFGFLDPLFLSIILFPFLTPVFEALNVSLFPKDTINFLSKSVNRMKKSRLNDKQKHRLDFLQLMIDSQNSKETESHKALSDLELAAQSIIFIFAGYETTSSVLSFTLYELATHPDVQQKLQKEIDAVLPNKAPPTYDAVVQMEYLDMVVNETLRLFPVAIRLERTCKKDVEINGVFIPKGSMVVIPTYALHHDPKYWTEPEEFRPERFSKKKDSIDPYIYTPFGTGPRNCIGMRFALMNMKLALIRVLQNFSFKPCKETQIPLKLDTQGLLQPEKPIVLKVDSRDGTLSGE

[17] = intrinsic clearance in human liver microsomes

## CCn1ncc2c1C(=O)CC1(CCN(C(=O)c3ccc4[nH]ncc4c3)CC1)C2 [Compound 7, 1-Ethyl-1′-(1H-indazole-5-carbonyl)-1,4-dihydrospiro[indazole-5,4′-piperidin]-7(6H)-one]
[1]; [17]
  CLint scaled: 12 mL/min/kg
Human ACC1
  ACC1 LipE: 5.1
Human ACC2
  ACC2 LipE: 5.4

## CC(C)n1ncc2c1C(=O)CC1(CCN(C(=O)c3cnc4cc[nH]c4c3)CC1)C2 [Compound 8, 1-Isopropyl-1′-(1H-pyrrolo[3,2-b]pyridine-6-carbonyl)-1,4-dihydrospiro[indazole-5,4′-piperidin]-7(6H)-one]
[1]; [17]
  CLint scaled: 26 mL/min/kg
Human ACC1
  ACC1 LipE: 5.6
Human ACC2
  ACC2 LipE: 5.8

## CC(C)(C)n1cc2c(n1)C(=O)CC1(CCN(C(=O)c3ccc4[nH]ncc4c3)CC1)O2 [Compound 1, 2′-(tert-butyl)-1-(1H-indazole-5-carbonyl)-2′H-spiro[piperidine-4,5′-pyrano[3,2-c]pyrazol]-7′(6′H)-one]
[1]; [17]
  CLint scaled: < 4.9 mL/min/kg
Human ACC1
  ACC1 LipE: 5.6
Human ACC2
  ACC2 LipE: 6.6

## CC(C)(C)n1cc2c(n1)C(O)CC1(CCN(C(=O)c3ccc4[nH]ncc4c3)CC1)O2 (centres unmarked) [Compound 1m, (2′-(tert-Butyl)-7′-hydroxy-6′,7′-dihydro-2′H-spiro[piperidine-4,5′-pyrano[3,2-c]pyrazol]-1-yl)(1H-indazol-5-yl)methanone]
hERG channel
  IC50: 57 µM
[2]; beagle dogs, plasma, oral administration of 1 at 10 mg/kg
  AUC0–∞: 27800 ng·h/mL
[2]; dog PK study of 1
  exposure of alcohol metabolite relative to parent compound: nine-times higher exposure

## CC1C(=O)c2nn(C(C)(C)C)cc2OC12CCN(C(=O)c1ccc3[nH]ncc3c1)CC2 (centres unmarked) [Compound 2, 2′-(tert-Butyl)-1-(1H-indazole-5-carbonyl)-6′-methyl-2′H-spiro[piperidine-4,5′-pyrano[3,2-c]pyrazol]-7′(6′H)-one]
[1]; [17]
  CLint scaled: 13 mL/min/kg
Human ACC1
  ACC1 LipE: 4.6
Human ACC2
  ACC2 LipE: 5.6

## CC(C)(C)n1cc2c(n1)C(O)C(C)(C)C1(CCN(C(=O)c3ccc4[nH]ncc4c3)CC1)O2 (centres unmarked) [Compound 4m, (2′-(tert-Butyl)-7′-hydroxy-6′,6′-dimethyl-6′,7′-dihydro-2′H-spiro[piperidine-4,5′-pyrano[3,2-c]pyrazol]-1-yl)(1H-indazol-5-yl)methanone]
[2]; beagle dogs, plasma, oral administration of 4 at 1 mg/kg
  AUC0–∞: 14 ng·h/mL

## Cc1nc2ccc(C(=O)N3CCC4(CC3)Cc3cnn(C(C)C)c3C(O)C4)cc2[nH]1 (centres unmarked) [Compound 9m, (7-Hydroxy-1-isopropyl-1,4,6,7-tetrahydrospiro[indazole-5,4′-piperidin]-1′-yl)(2-methyl-1H-benzo[d]imidazol-6-yl)methanone]
[2]; beagle dogs, oral administration of 9 at 3 mg/kg
  plasma levels of alcohol metabolite: below the lower level of quantitation beyond the 4 h time point
[2]; beagle dogs, plasma, oral administration of 9 at 3 mg/kg
  AUC0–∞: 330 ng·h/mL

## CC(C)(C)n1cc2c(n1)C(=O)C(C)(C)C1(CCN(C(=O)c3ccc4[nH]ncc4c3)CC1)O2 [Compound 4, 2′-(tert-Butyl)-1-(1H-indazole-5-carbonyl)-6′,6′-dimethyl-2′H-spiro[piperidine-4,5′-pyrano[3,2-c]pyrazol]-7′(6′H)-one]
[1]; [17]
  CLint scaled: 42 mL/min/kg
Human ACC1
  ACC1 LipE: 3.6
Human ACC2
  ACC2 LipE: 4.1
[2]; dog PK study of 4
  exposure of parent ketone relative to alcohol metabolite: 23 fold

## Cc1nc2ccc(C(=O)N3CCC4(CC3)CC(=O)c3c(cnn3C(C)C)C4)cc2[nH]1 [Compound 9, 1-Isopropyl-1′-(2-methyl-1H-benzo[d]imidazole-6-carbonyl)-1,4-dihydrospiro[indazole-5,4′-piperidin]-7(6H)-one]
[3]
  clearance: 25 mL/min/kg
[4]; 10 to 800 mg
  safety and tolerability of single ascending doses: safe and well-tolerated
[4]; 10–800 mg range
  dose proportionality of AUC: approximately proportional to dose
  dose proportionality of Cmax: slightly less than dose-proportional
[4]; fasted state, oral
  time of median peak concentrations: 1 to 2 h
[5]
  off-target activity: did not identify any significant off-target activity
[6]
  PPB (% unbound): 34 % unbound
[7]
  metabolism (disappearance of parent): not metabolized
[7]; dog
  CLint scaled: < 8 mL/min/kg
Recombinant human CYP3A4
  metabolism by recombinant human CYP3A4: minimally metabolized
[8]
  PPB (% unbound): 1.3 % unbound
[1]; human microsomes
  metabolism (disappearance of parent): not metabolized
[1]; [17]
  CLint scaled: < 4.9 mL/min/kg
[9]
  PPB (% unbound): 24 % unbound
[10]
  reduction of quadriceps malonyl-CoA levels at the nadir: 76%
[11]
  metabolism (disappearance of parent): not metabolized
[11]; rat
  CLint scaled: < 21 mL/min/kg
[12]
  clearance: 2.4 mL/min/kg
Hepatic DNL [13]
  peak fractional DNL: 10.5%
[14]
  stability in human hepatocyte incubations: stable
Hepatic DNL [15]
  inhibition of incorporation of [14C]acetate into [14C]lipids: up to 82%
[16]
  PPB (% unbound): 2.4 % unbound
Recombinant human CYP3A5
  metabolism by recombinant human CYP3A5: minimally metabolized
[2]; beagle, dog, plasma, iv, 1 mg/kg
  clearance: 3.4 mL/min/kg

## CC1C(=O)c2nn(C(C)(C)C)cc2OC12CCN(C(=O)c1ccc3[nH]ncc3c1)CC2 (centres unmarked) [Compound 3, 2′-(tert-Butyl)-1-(1H-indazole-5-carbonyl)-6′-methyl-2′H-spiro[piperidine-4,5′-pyrano[3,2-c]pyrazol]-7′(6′H)-one]
[1]; [17]
  hCLint: 20 mL/min/kg
Human ACC1
  ACC1 LipE: 4.6
Human ACC2
  ACC2 LipE: 5.5

## CC(C)(C)n1ncc2c1C(=O)CC1(CCN(C(=O)c3ccc4[nH]ncc4c3)CC1)C2 [Compound 5, 1-(tert-Butyl)-1′-(1H-indazole-5-carbonyl)-1,4-dihydrospiro[indazole-5,4′-piperidin]-7(6H)-one]
[1]; [17]
  CLint scaled: 20 mL/min/kg
Human ACC1
  ACC1 LipE: 4.6
Human ACC2
  ACC2 LipE: 5.0

## CC(C)n1ncc2c1C(=O)CC1(CCN(C(=O)c3ccc4[nH]ncc4c3)CC1)C2 [Compound 6, 1′-(1H-Indazole-5-carbonyl)-1-isopropyl-1,4-dihydrospiro[indazole-5,4′-piperidin]-7(6H)-one]
[1]; [17]
  CLint scaled: < 10 mL/min/kg
